The record followed here is BindingDB's records for doi:10.1016/j.bmcl.2008.08.079 (Abbott Laboratories, 2008).

In assay [1] the target is Serine/threonine-protein kinase pim-1 (Homo sapiens, UniProt P11309). As to the kind of experiment: Pim Kinase Assay. The settings on record: pH 7.5; 22 °C. The method, then: (§1) Assays were conducted in 384-well v-bottom polypropylene plates. Test compound was mixed with Pim and biotinylated peptide substrate, followed by immediate initiation with [gamma-33 P]ATP. Reactions were quenched and transferred to 384-well streptavidin-coated plates. After incubation, radioactivity was counted on a TopCount Scintillation Plate Reader (Packard).

The target of assay [2] is Serine/threonine-protein kinase pim-2 (Homo sapiens, UniProt Q9P1W9). Nature of the assay: Pim Kinase Assay. The settings on record: pH 7.5; 22 °C. The method, then: as §1
Chain of Serine/threonine-protein kinase pim-2 (Q9P1W9 whole entry): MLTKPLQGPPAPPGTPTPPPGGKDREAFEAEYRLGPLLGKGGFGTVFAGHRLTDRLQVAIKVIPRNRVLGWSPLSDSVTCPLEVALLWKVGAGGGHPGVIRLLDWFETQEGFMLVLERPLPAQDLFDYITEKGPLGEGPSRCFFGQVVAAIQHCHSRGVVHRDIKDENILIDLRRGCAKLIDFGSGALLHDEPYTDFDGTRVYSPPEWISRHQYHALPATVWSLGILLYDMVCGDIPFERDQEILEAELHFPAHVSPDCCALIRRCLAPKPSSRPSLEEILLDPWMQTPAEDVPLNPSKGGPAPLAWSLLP

Chain of Serine/threonine-protein kinase pim-1 (P11309 whole entry): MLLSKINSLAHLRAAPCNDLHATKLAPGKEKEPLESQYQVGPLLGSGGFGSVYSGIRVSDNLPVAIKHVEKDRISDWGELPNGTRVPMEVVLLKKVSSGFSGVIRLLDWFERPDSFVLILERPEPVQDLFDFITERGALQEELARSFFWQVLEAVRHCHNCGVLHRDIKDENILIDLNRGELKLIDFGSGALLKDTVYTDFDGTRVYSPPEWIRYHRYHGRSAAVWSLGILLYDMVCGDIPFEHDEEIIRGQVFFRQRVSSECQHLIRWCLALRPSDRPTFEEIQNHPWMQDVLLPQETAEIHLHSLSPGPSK

In general, Ki refers to a measure of affinity in units of concentration, obtained from inhibition or displacement. Read a low Ki as a stronger hold on the target. `CC(C)n1c2noc(=O)c-2c(O)c2cc(F)c(Cl)cc21` [7-chloro-6-fluoro-9-(propan-2-yl)-1H,3H,4H,9H-quinolino[2,3-c][1,2]oxazole-3,4-dione]: the values for the Ki in assay [1] and in assay [2] were 12.3 nM and 62.8 nM, respectively.

`CCn1c2cc(Cl)c(F)cc2c(=O)c2c(=O)on(C)c21` [7-chloro-9-ethyl-6-fluoro-1-methyl-1H,3H,4H,9H-quinolino[2,3-c][1,2]oxazole-3,4-dione]: the Ki in assay [1] is 50.1 nM; in assay [2], above 1420 nM.

As to `CCn1c2noc(=O)c-2c(O)c2cc(O)c(Cl)cc21` [7-chloro-9-ethyl-6-hydroxy-1H,3H,4H,9H-quinolino[2,3-c][1,2]oxazole-3,4-dione], in assay [2], the affinity, expressed as Ki, was 43.5 nM.

In the case of `CCCCn1c2noc(=O)c-2c(O)c2cc(F)c(Cl)cc21` [9-butyl-7-chloro-6-fluoro-1H,3H,4H,9H-quinolino[2,3-c][1,2]oxazole-3,4-dione], the inhibition constant (Ki) in assay [1] is 15 nM; in assay [2], 165 nM.

Consider `CCn1c2noc(=O)c-2c(O)c2cc(OC)c(Cl)cc21` [7-chloro-9-ethyl-6-methoxy-1H,3H,4H,9H-quinolino[2,3-c][1,2]oxazole-3,4-dione], for which the Ki in assay [1] is 2700 nM; in assay [2] it was above 1420 nM.

As to `O=c1onc2n(Cc3ccccc3)c3cc(Cl)c(F)cc3c(O)c1-2` [9-benzyl-7-chloro-6-fluoro-1H,3H,4H,9H-quinolino[2,3-c][1,2]oxazole-3,4-dione], the inhibition constant (Ki) in assay [1] amounted to 36.5 nM; in assay [2], 558 nM.
